From patent US9642381B2, “Orally consumable formulations comprising certain sweet-tasting triterpenes and triterpene glycosides” (Symrise AG, priority 2011, dated 2017)

Columns and labels:
Assay type in all cases: in vivo, human
group of experts [1] = assay: Sensory evaluation of Balansin A and Balansin B by a group of experts; conditions: 50 ppm in water and in a 5 wt % aqueous saccharose solution; Balansin A described in the aqueous solution
Excerpt: A group of experts tasted and sensorily evaluated the two isolated compounds Balansin A and Balansin B from Example 4, each at a concentration of 50 ppm in water and a 5 wt % aqueous saccharose solution.

[2] = test system: group of at least five persons; assay: Intrinsic sweetness against a saccharose reference series (saccharose equivalents); conditions: 50 ppm, against saccharose reference series in water
Excerpt: To determine the sweet impression of the extracts according to the invention or of the compounds according to the invention of the formula (I) compared to an aqueous saccharose solution, an aqueous solution of one or a plurality of compounds of the formula (I) is produced in the same concentration as is present in the orally consumable formulation under study. This aqueous solution is then compared and rated for taste by a group of at least five persons against a reference series of different saccharose concentrations in water. In this way, the saccharose equivalence is determined (indicated in saccharose equivalents), in other words, the concentration of the saccharose solution, whose sweet impression is equivalent to the sweet impression of the concentration of compounds of the formula (I). Preferred concentrations of the saccharose reference solution are 0; 0.25; 0.5; 0.75; 1; 1.5; 2; 3; 4 and 5 wt % saccharose in water. If necessary, other concentrations, particularly higher concentrations, can also be used for the reference series. The ascertained saccharose equivalent is obtained from the mean value of the individual rating of the individual panelists. The panelists are preferably persons who have experience in the field of tasting, are of different age and gender and come from different backgrounds. […]

group of experts [3] = assay: Reinforcing the sweet impression of a 5 wt % saccharose solution; conditions: for % Reinforcement of the sweet impression: versus saccharose solution alone; for Sweet impression (1-10) with: rating 1 [not sweet] to 10 [extremely sweet]
Protocol: In order to quantify the reinforcement of the sweet impression, the sweetness of a 5 wt %-containing saccharose solution and of a sample which contained 5 wt % saccharose and a quantity of the test substance or test extract was determined by a group of experts (rating 1 [not sweet] to 10 [extremely sweet]). The analysis was performed as a calculation of the […] (in %) of the sweet impression from the average values of the assessments of the saccharose solution and of the solution containing saccharose and Compound 2 (p was determined as a significance measure according to the paired, two-tailed Student's statistical test).

[4] = 25 ppm in 5 wt % saccharose solution
[5] = 50 ppm in 5 wt % saccharose solution

SMILES	Sensory evaluation (taste description) (group of experts [1])	Intrinsic sweetness, equivalent to the sweetness of saccharose [2]	% Reinforcement of the sweet impression (group of experts [3]; [4])	Sweet impression (1-10) with (group of experts [3]; [4])	% Reinforcement of the sweet impression (group of experts [3]; [5])	Sweet impression (1-10) with (group of experts [3]; [5])
CC(C)(O)C(O)C/C=C(\CO)[C@H]1CC[C@]2(C)[C@@H]1CC[C@@H]1[C@@]3(C)CC[C@H](O[C@@H]4O[C@H](CO)[C@@H](O)[C@H](O)[C@H]4OC4O[C@H](CO)[C@@H](O)[C@H](O)[C@H]4O)C(C)(C)[C@@H]3CC[C@]12C (some centres unmarked) [Balansin A]	intensely sweet, also as slightly bitter and displayed a sweetener-type note	2 % saccharose	48% (p < 0.00005)	7.2 ± 1.4		
CC(C)(O)C(O)C/C=C(\CO)[C@H]1CC[C@]2(C)[C@@H]1CC[C@@H]1[C@@]3(C)CC[C@H](O[C@@H]4O[C@H](COC5OC(CO)[C@@H](O)[C@H](O)[C@H]5O)[C@@H](O)[C@H](O)[C@H]4OC4O[C@H](CO)[C@@H](O)[C@H](O)[C@H]4O)C(C)(C)[C@@H]3CC[C@]12C (some centres unmarked) [Balansin B]	slightly bitter, slightly sweetener-type and weakly ethanolic, but otherwise displayed no noticeable intrinsic taste	1 % saccharose			31% (p < 0.0005)	6.7 ± 1.1
